# Earlier results in patent publication US20030077302A1, “Diclofenamide suspension gel” (priority 2000, published 2003).
# Legend:
# [1] = system: intraocular pressure; details: rabbits
# [2] = rabbits, topical suspensions
Structure (SMILES),reduction of the intraocular pressure ([1]; topical aqueous solution),reduction of the intraocular pressure compared with suspensions of the free acid of diclofenamide ([1]; topical solutions),"tolerability, single applications (rabbit, in vivo)","side effects, repeated use (rabbits, solutions, repeated use)",aqueous humor values compared with solutions of sodium diclofenamide [2]
NS(=O)(=O)c1cc(Cl)c(Cl)c(S(N)(=O)=O)c1 [diclofenamide sodium],clear and long lasting reduction of the intraocular pressure,clearly stronger and longer reduction of the intraocular pressure,well tolerated,severe undesirable side effects,–
"NS(=O)(=O)c1cc(Cl)c(Cl)c(S(N)(=O)=O)c1 [diclofenamide, 4,5-dichlorbenzene-1,3-disulfonamide]",–,–,–,–,clearly at a lower level
